From the supplement of paper PMC10307832

Experiments:
Test in all cases: relative viability (nuclei count vs DMSO), 5 days (fraction); higher = more cells survive
ABC-1 = tested on: ABC-1
In short: (§1)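 A single step with final 0.05% Triton X-100, 1% formaldehyde and 1 ug/ml Hoechst fixed the cells and stained nuclei 5 days after treatment. Lung cancer cell lines in 1536-well plates had been treated by pin tool the day after seeding with one drug alone or a fixed anchor-drug dose plus five library-drug doses (not always all listed) in √10 steps, and nuclei were counted on 4× images. Relative viability is the ratio of nuclei in treated wells to nuclei in vehicle wells, taken as the median of duplicate plates.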

COR-L23 = tested on: COR-L23
In short: as §1

EPLC-272H = tested on: EPLC-272H
In short: as §1

HARA = tested on: HARA
In short: as §1

HCC-15 = tested on: HCC-15
In short: as §1

HCC-44 = tested on: HCC-44
In short: as §1

HOP-62 = tested on: HOP-62
In short: as §1

LC-2-ad = tested on: LC-2-ad
In short: as §1

LU99A = tested on: LU99A
In short: as §1

NCI-H1355 = tested on: NCI-H1355
In short: as §1

NCI-H1651 = tested on: NCI-H1651
In short: as §1

For `COc1cc2nccc(Oc3ccc(NC(=O)Nc4cc(C)on4)c(Cl)c3)c2cc1OC` [Tivozanib] + O=C(c1cc(Cc2n[nH]c(=O)c3ccccc23)ccc1F)N1CCN(C(=O)C2CC2)CC1 [Olaparib] (partner 8 µM), the relative viability (ABC-1; first compound 0.005 µM) was 0.815, the relative viability (ABC-1; first compound 0.01581 µM) was 0.837 and the relative viability (ABC-1; first compound 0.05 µM) was 0.579. For the same compound, the relative viability (ABC-1; first compound 0.1581 µM) was 1.02, the relative viability (ABC-1; first compound 0.5 µM) was 0.67 and the relative viability (COR-L23; first compound 0.005 µM) was 0.324. It also gave a relative viability (COR-L23; first compound 0.01581 µM) of 0.326, a relative viability (COR-L23; first compound 0.05 µM) of 0.376 and a relative viability (COR-L23; first compound 0.1581 µM) of 0.363. The relative viability (COR-L23; first compound 0.5 µM) was 0.298, the relative viability (EPLC-272H; first compound 0.005 µM) was 0.63 and the relative viability (EPLC-272H; first compound 0.01581 µM) was 0.969. The relative viability (EPLC-272H; first compound 0.05 µM) was 0.741, the relative viability (EPLC-272H; first compound 0.1581 µM) was 0.783 and the relative viability (EPLC-272H; first compound 0.5 µM) was 0.659. For the same compound, the relative viability (HARA; first compound 0.005 µM) was 0.606, the relative viability (HARA; first compound 0.01581 µM) was 1.07 and the relative viability (HARA; first compound 0.05 µM) was 0.763. It also gave a relative viability (HARA; first compound 0.1581 µM) of 1.15, a relative viability (HARA; first compound 0.5 µM) of 0.893 and a relative viability (HCC-15; first compound 0.005 µM) of 0.661. For the same compound, the relative viability (HCC-15; first compound 0.01581 µM) was 0.709, the relative viability (HCC-15; first compound 0.05 µM) was 0.755 and the relative viability (HCC-15; first compound 0.1581 µM) was 0.696. For the same compound, the relative viability (HCC-15; first compound 0.5 µM) was 0.553, the relative viability (HCC-44; first compound 0.005 µM) was 0.967 and the relative viability (HCC-44; first compound 0.01581 µM) was 0.911. The relative viability (HCC-44; first compound 0.05 µM) was 0.998, the relative viability (HCC-44; first compound 0.1581 µM) was 0.949 and the relative viability (HCC-44; first compound 0.5 µM) was 0.999. For the same compound, the relative viability (HOP-62; first compound 0.005 µM) was 0.472, the relative viability (HOP-62; first compound 0.01581 µM) was 0.405 and the relative viability (HOP-62; first compound 0.05 µM) was 0.324. It also gave a relative viability (HOP-62; first compound 0.1581 µM) of 0.537, a relative viability (HOP-62; first compound 0.5 µM) of 0.37 and a relative viability (LC-2-ad; first compound 0.005 µM) of 0.768. The relative viability (LC-2-ad; first compound 0.01581 µM) was 0.793, the relative viability (LC-2-ad; first compound 0.05 µM) was 0.787 and the relative viability (LC-2-ad; first compound 0.1581 µM) was 0.794. It also gave a relative viability (LC-2-ad; first compound 0.5 µM) of 0.729, a relative viability (LU99A; first compound 0.005 µM) of 0.275 and a relative viability (LU99A; first compound 0.01581 µM) of 0.247. For the same compound, the relative viability (LU99A; first compound 0.05 µM) was 0.271, the relative viability (LU99A; first compound 0.1581 µM) was 0.231 and the relative viability (LU99A; first compound 0.5 µM) was 0.27. It also gave a relative viability (NCI-H1355; first compound 0.005 µM) of 0.732, a relative viability (NCI-H1355; first compound 0.01581 µM) of 0.755 and a relative viability (NCI-H1355; first compound 0.05 µM) of 0.765. It also gave a relative viability (NCI-H1355; first compound 0.1581 µM) of 0.672, a relative viability (NCI-H1355; first compound 0.5 µM) of 0.753 and a relative viability (NCI-H1651; first compound 0.005 µM) of 0.187. For the same compound, the relative viability (NCI-H1651; first compound 0.01581 µM) was 0.188, the relative viability (NCI-H1651; first compound 0.05 µM) was 0.198 and the relative viability (NCI-H1651; first compound 0.1581 µM) was 0.203. For the same compound, the relative viability (NCI-H1651; first compound 0.5 µM) was 0.158.
